Results taken from patent US5064946A, “Therapeutic nucleosides” (priority 1987, dated 1991).
pEC50: −log10 of the molar value.

Experiments:
Citro. freundii = assay: In vitro antibacterial activity (MIC), Citro. freundii; assay type: cell-based; conditions: Citrobacter freundii; Wellcotest sensitivity Test Agar + 7% lysed horse blood
Salmonella typhimurium = assay: In vitro antibacterial activity (MIC), Salmonella typhimurium; assay type: cell-based; conditions: Salmonella enterica, Wellcotest sensitivity Test Agar + 7% lysed horse blood
Entero. aerogenes = assay: In vitro antibacterial activity (MIC), Entero. aerogenes; assay type: cell-based, Enterobacter aerogenes; conditions: Klebsiella aerogenes; Wellcotest sensitivity Test Agar + 7% lysed horse blood
[1] = tested on: Friend Leukemia Virus (FLV); assay: Anti-Friend Leukemia Virus plaque inhibition in FG-10 cells; assay type: cell-based; conditions: dipyridamole 10 μM, dilazep 5 μM, each alone
E. coli CN314 = assay: In vitro antibacterial MIC and synergy studies against E. coli CN314; conditions: Escherichia coli
HIV [2] = assay: Anti-HIV activity of 3'-azidonucleosides in vitro (T-cells); assay type: cell-based; conditions: Human immunodeficiency virus 1; T-cells exposed to HIV, viable cell count; read-out: ED50 (the source's name)
HIV [3] = assay: AZT/Acyclovir combinations vs. HIV in vitro (protection); assay type: cell-based

| SMILES | MIC (Citro. freundii) [µg/mL] | MIC (Salmonella typhimurium) [µg/mL] | MIC (Entero. aerogenes) [µg/mL] | MIC (E. coli CN314) [µg/mL] | other results |
| --- | --- | --- | --- | --- | --- |
| Cc1cn([C@H]2C[C@H](N=[N+]=[N-])[C@@H](CO)O2)c(=O)[nH]c1=S [Compound 1, 3'-Azido-3'-deoxy-4-thiothymidine] | 10 | < 0.1 | < 0.1 |  |  |
| Cc1cn([C@H]2C[C@H](N=[N+]=[N-])[C@@H](CO)O2)c(=S)[nH]c1=O [Compound 3, 3'-Azido-3'-deoxy-2-deoxy-2-thiothymidine] | 10 | 10 | > 100 |  |  |
| COc1cc(C(=O)OCCCN2CCCN(CCCOC(=O)c3cc(OC)c(OC)c(OC)c3)CC2)cc(OC)c1OC [dilazep] |  |  |  |  | observed antiviral effect alone [1]: Neither dipyridamole (10 μM) nor dilazep (5 μM) alone had any observed antiviral effect |
| Cc1cc(C)nc(NS(=O)(=O)c2ccc(N)cc2)n1 [Sulphadimidine] |  |  |  | 32 |  |
| COc1nc(=O)c(C)cn1[C@H]1C[C@H](N=[N+]=[N-])[C@@H](CO)O1 [Compound 7, 3'-Azido-3'-deoxy-2-methoxythymidine] | 10 | 10 | 10 |  |  |
| [N-]=[N+]=N[C@H]1C[C@H](n2ccc(N)nc2=O)O[C@@H]1CO [3'-Azido-2',3'-dideoxycytidine] |  |  |  |  | pEC50 (HIV [2]): 5.00 |
| CO[C@H]1/C=C/O[C@@]2(C)Oc3c(C)c(O)c4c(O)c(c(/C=N/N5CCN(C)CC5)c(O)c4c3C2=O)NC(=O)/C(C)=C\C=C\[C@H](C)[C@H](O)[C@@H](C)[C@@H](O)[C@@H](C)[C@H](OC(C)=O)[C@@H]1C [Rifampicin] |  |  |  | 6.2 |  |
| CC(=O)O[C@H]1C[C@@]2(C)[C@@H](C[C@@H](O)[C@H]3[C@@]4(C)CC[C@@H](O)[C@@H](C)[C@@H]4CC[C@@]32C)/C1=C(\CCC=C(C)C)C(=O)O [Fusidic acid] |  |  |  | 1000 |  |
| CCC[C@@H]1C[C@@H](C(=O)N[C@@H]([C@H]2O[C@H](SC)[C@H](O)[C@@H](O)[C@H]2O)[C@H](C)Cl)N(C)C1 [Clindamycin] |  |  |  | 100 |  |
| CC(=O)OC[C@H]1O[C@@H](n2cc(C)c(=S)[nH]c2=O)C[C@@H]1N=[N+]=[N-] [Compound 2, 3'-Azido-3'-deoxy-5'-O-acetyl-4-thiothymidine] | 10 | 10 | 10 |  |  |
| [N-]=[N+]=N[C@H]1C[C@H](n2cc(/C=C/C(=O)O)c(=O)[nH]c2=O)O[C@@H]1CO [(E)-3-[1-(3'-Azido-2',3'-dideoxy-β-D-erythro-pentofuranosyl)-1,2,3,4-tetrahydro-2,4-dioxo-5-pyrimidinyl]-2-propenoic Acid] |  |  |  |  | pEC50 (HIV [2]): 4.00 |
| Cc1cn([C@H]2C[C@H](N=[N+]=[N-])[C@@H](CO)O2)c(OCc2ccccc2)nc1=O [Compound 6, 1-(3'-Azido-2',3'-dideoxy-β-D-erythro-pentofuranosyl)-2-(benzyloxo)-5-methyl-4-(1H)-pyrimidinone] | 10 | 10 | 10 |  |  |
| CC[C@H]1OC(=O)[C@H](C)[C@@H](O[C@H]2C[C@@](C)(OC)[C@@H](O)[C@H](C)O2)[C@H](C)[C@@H](O[C@@H]2O[C@H](C)C[C@H](N(C)C)[C@H]2O)[C@](C)(O)C[C@@H](C)C(=O)[C@H](C)[C@@H](O)[C@]1(C)O [Erythromycin] |  |  |  | 25 |  |
| [N-]=[N+]=N[C@H]1C[C@H](n2cc(Br)c(N)nc2=O)O[C@@H]1CO [3'-Azido-5-bromo-2',3'-dideoxycytidine] |  |  |  |  | pEC50 (HIV [2]): 5.30 |
| [N-]=[N+]=N[C@H]1C[C@H](n2cc(Br)c(=O)[nH]c2=O)O[C@@H]1CO [Compound 8, 3'-Azido-5-bromo-2',3'-dideoxyuridine] | > 100 | > 100 | > 100 |  | pEC50 (HIV [2]): 5.30 |
| NC[C@H]1O[C@H](O[C@H]2[C@H](O)[C@@H](O[C@H]3O[C@H](CO)[C@@H](O)[C@H](N)[C@H]3O)[C@H](N)C[C@@H]2N)[C@H](N)C[C@@H]1O [Tobramycin] |  |  |  | 0.4 |  |
| O=C(N[C@H](CO)[C@H](O)c1ccc([N+](=O)[O-])cc1)C(Cl)Cl [Chloramphenicol] |  |  |  | 3.1 |  |
| CC(=O)OC[C@H]1O[C@@H](n2cc(C)c(=O)n(C(=O)c3ccccc3)c2=O)C[C@@H]1N=[N+]=[N-] [Compound 4, 5'-Acetyl-3'-azido-3-benzoyl-3'-deoxythymidine] | < 0.1 | < 0.1 | > 100 |  |  |
| OCCN(CCO)c1nc(N2CCCCC2)c2nc(N(CCO)CCO)nc(N3CCCCC3)c2n1 [dipyridamole] |  |  |  |  | observed antiviral effect alone [1]: Neither dipyridamole (10 μM) nor dilazep (5 μM) alone had any observed antiviral effect |
| COc1cc(Cc2cnc(N)nc2N)cc(OC)c1OC [Trimethoprim, 2,4-diamino-5-(3',4',5'-trimethoxybenzyl) pyrimidine, reference compound] | 0.5 | 0.5 | 0.5 | 0.125 |  |
| Nc1nc2c(ncn2COCCO)c(=O)[nH]1 [ACV, 9-(2-hydroxyethoxymethyl)guanine] |  |  |  |  | potentiation of the antiviral activity of AZT (HIV [3]): about 3 -fold; activity alone vs. HIV (HIV [3]; ACV alone): little activity; inhibition at 16 µg/mL (HIV [3]; Human immunodeficiency virus 1, T-cell, ACV alone, 16 μg/ml (highest tested)): < 30% |
| CC(=O)OC[C@H]1O[C@@H](n2cc(C)c(-n3cncn3)nc2=O)C[C@@H]1N=[N+]=[N-] [Compound 5, 1-(5'-O-Acetyl-3'-azido-2',3'-deoxy-β-D-erythro-pentofuranosyl)-5-methyl-4-(1,2,4-triazol-1-yl)-2(1H)-pyrimidinone] | 10 | > 100 | 100 |  |  |
